Source: US20170296505A1, “LONG-CHAIN CARBOXYCHROMANOLS AND ANALOGS FOR USE AS ANTI-INFLAMMATORY AGENTS” (Purdue Research Foundation, priority 2008, published 2017)
Read-outs that look alike come from different tables or passages of the source. Values belong to the compound of their own block, whether it stands above or below them.

Assays:
5-LOX = biological target: T1, 5-LOX (Homo sapiens, UniProt P09917); test: 5-LOX activity in HL-60 cells differentiated neutrophils; format: cell-based; parameters: endogenous in cells; host or cells: HL-60 cells differentiated to neutrophils
T1 sequence (P09917 1-674): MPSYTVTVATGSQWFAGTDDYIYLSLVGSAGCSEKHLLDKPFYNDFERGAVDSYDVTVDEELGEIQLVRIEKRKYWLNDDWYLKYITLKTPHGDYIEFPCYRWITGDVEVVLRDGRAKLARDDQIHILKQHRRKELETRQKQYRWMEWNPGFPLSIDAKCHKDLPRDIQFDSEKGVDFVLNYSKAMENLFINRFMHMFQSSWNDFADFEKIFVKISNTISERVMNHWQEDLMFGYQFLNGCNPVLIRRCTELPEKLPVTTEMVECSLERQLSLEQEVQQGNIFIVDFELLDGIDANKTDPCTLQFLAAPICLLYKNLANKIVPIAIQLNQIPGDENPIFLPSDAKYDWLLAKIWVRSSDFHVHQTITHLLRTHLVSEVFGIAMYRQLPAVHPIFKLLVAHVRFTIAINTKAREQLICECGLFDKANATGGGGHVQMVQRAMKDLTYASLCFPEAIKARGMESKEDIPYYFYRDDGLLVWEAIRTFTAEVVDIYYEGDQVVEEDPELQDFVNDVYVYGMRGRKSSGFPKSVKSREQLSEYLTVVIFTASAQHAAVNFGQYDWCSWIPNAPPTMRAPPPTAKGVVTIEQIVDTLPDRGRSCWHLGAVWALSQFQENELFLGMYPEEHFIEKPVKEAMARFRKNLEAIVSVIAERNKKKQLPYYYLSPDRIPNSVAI

[1] = after γ-T supplementation; cited from earlier work
COX-2 [2] = biological target: T2, COX-2 (Homo sapiens, UniProt P35354); test: COX-2 activity assay using purified enzyme; format: biochemical; parameters: purchased Cayman Chemicals (Ann Arbor, Mich.); IC50 in the enzyme assay: unit not given beside the values
T2 sequence (P35354 18-604): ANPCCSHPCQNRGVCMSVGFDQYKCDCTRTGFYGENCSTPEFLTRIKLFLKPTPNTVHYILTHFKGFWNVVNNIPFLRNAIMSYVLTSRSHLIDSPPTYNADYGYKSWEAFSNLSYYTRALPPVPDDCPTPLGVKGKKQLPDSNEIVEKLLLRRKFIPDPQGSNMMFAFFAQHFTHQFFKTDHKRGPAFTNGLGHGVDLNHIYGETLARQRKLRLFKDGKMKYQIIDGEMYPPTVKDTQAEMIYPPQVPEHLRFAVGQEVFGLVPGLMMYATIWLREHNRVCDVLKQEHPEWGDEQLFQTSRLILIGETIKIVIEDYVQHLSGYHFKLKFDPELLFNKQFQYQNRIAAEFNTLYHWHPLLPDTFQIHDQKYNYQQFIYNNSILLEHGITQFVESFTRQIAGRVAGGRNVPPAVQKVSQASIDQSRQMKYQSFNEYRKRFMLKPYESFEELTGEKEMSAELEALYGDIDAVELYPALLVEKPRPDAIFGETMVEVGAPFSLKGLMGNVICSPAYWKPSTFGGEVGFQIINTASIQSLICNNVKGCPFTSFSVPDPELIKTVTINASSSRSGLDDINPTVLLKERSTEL
Experimental: (§1) COX-1 and COX -2 activity assay using purified enzymes—The enzymatic reactions were performed in 0.1M Tris (pH 8.0), in the presence of 5 mM EDTA, 2 mM phenol, and 1 μM heme. […] Enzymatic reactions were initiated by addition of AA at a final concentration of 5 μM for 2 min. The reaction was stopped by addition of 0.1 M HCl. Stannous chloride in 0.1 M HCl was then added to reduce PGG2 and PGH2 to PGF2a. After addition of 0.5 vol of […] NaCl, prostaglandins formed in the reaction were extracted using 2.5 vol of ethyl acetate and the organic layer was completely dried under N2. PGF2a, and PGE2 were quantified using ELISA assays from Cayman Chemicals.

COX-2 [3] = biological target: T2, COX-2; test: COX-2 activity in intact cells; format: cell-based; parameters: A549 cells were pre-treated with 0.5-1 ng/mL of IL-1β- for 6 hours to induce COX-2 expression; endogenous in cells
Experimental: COX-2 activity in intact cells—A549 cells were pre-treated with 0.5-1 ng/mL of IL-1β- for 6 hours to induce COX-2 expression, then incubated with fresh medium containing vitamin E farms, metabolite-containing conditioned medium or control medium for 30 min. […] The enzyme reaction was initiated by addition of 5 μM AA for 5 min, and medium was collected and immediately frozen to −20 C. PGE2 generated was measured as an index of COX-2 activity using an EIA assay from Cayman Chemicals.

ovine COX-1 = biological target: T3, ovine COX-1 (Ovis aries, UniProt P05979); test: COX-1 activity assay using purified enzyme; format: biochemical
T3 construct: purchased Cayman Chemicals (Ann Arbor, Mich.)
T3 sequence (P05979 25-600): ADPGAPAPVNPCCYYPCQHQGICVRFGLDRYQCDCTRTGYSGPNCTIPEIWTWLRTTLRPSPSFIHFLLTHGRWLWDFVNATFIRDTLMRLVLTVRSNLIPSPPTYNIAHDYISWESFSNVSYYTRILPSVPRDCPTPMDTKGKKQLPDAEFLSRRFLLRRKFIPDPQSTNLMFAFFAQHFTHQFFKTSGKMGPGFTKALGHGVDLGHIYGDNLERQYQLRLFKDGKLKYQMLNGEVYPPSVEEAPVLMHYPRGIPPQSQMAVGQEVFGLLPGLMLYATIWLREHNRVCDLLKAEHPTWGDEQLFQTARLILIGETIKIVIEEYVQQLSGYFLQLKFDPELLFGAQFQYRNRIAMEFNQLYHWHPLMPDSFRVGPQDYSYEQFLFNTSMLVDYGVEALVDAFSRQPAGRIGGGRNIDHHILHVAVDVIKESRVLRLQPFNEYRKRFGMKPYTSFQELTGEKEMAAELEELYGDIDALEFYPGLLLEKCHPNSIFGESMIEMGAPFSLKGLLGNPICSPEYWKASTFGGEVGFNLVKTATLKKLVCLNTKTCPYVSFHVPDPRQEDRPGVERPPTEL
Experimental: as §1

[4] = Metabolite levels after γ-T supplementation in rats; format: in vivo; conditions: preliminary data
Excerpt: One important implication of our current findings is that different bioactivity among vitamin E forms may be rooted in their distinct metabolism. To this end, long-chain carboxychromanols may contribute to in vivo anti-inflammatory effect of γ-T (3-2). […] Himmelfard et al. reported that γ-T enriched but not a-T-enriched mixed tocopherol inhibited C-reactive protein and IL-6 in kidney-dialysis patients 36).

[5] = test system: IL-1beta-stimulated PGE2 formation in A549 cells; test: IL-1beta-stimulated PGE2 formation with or without sesamin (Table 4); format: cell-based, human; conditions: IL-1beta 2 ng/ml, 8 h; 13′-COOH 2.5 uM, sesamin 1 uM
Experimental: Briefly, A549 cells were stimulated with IL-1beta (2 ng/ml) in the presence of DMSO (ctrl, 0.1%), control with sesamin (1 uM), 13′-COOH (structure 1) at 2.5 uM, 13′-COOH with sesamin (1 uM). Basal control was cells incubated with medium without IL-1beta. Eight hours later, media were collected and PGE2 was measured by ELISA.

[6] = test system: human normal CCD841CoN (CCD) colon epithelial cells; test: Normal colon epithelial cell viability (MTT); format: cell-based; conditions: vs. cancer cells
[7] = test system: HCT116 colon cancer cells; test: Apoptosis by flow cytometry; format: cell-based, human; conditions: 20 μM, 24 hours
[8] = test system: colon HCT116 cancer cells; test: HCT116 cell growth / viability (MTT); format: cell-based, human
Experimental: FIG. 9. MTT assay data were obtained after HCT116 colon cancer cells were incubated with curcumin (Cur, 6 μM), δTE-13′-COOH (13′, 10 μM) or their combination for 72 h. *P<0.05 and ***P<0.01 indicate statistically difference between the treatments and vehicle control.
(§2) The relative cell viability as a percentage of the control was determined for control and for each concentration.
This observation supports the idea that the combination of curcumin with 13′-COOHs may offer better anticancer efficacy than either agent alone.

DSS-induced colitis = DSS-induced colitis model; format: in vivo, mice
[9] = test system: human breast MCF-7 cancer cells; test: MCF-7 cell growth (MTT); format: cell-based; conditions: 5, 10, 20 μM, over 60 hours
Experimental: as §2

HT29 colon cancer cells = test: HT-29 cell viability (MTT); format: cell-based, human
Experimental: FIG. 8. […] Relative cell viability was measured by MTT assay after cells were treated with STE-13′ at indicated concentrations and times compared with DMSO controls. […] The data are mean±SD from at least three independent experiments. *p <0.05 and **p<0.01 indicate a significant difference between treated and DMSO-control cells
Besides HT29 colon cancer cells, we also observed similar anticancer effects of δTE-13-COOH on HCT116 colon cancer cells (FIG. 4C) and MCF7 breast cancer cells (FIG. 4A).

[10] = test system: AOM/DSS-induced colon inflammation and tumorigenesis; test: AOM/DSS-induced colon cancer model; format: in vivo, Balb/c mice; conditions: 0.025% diet
Experimental: AOM is a carcinogen and DSS administered in drinking water causes colon inflammation that promotes colon tumorigenesis. Therefore, the AOM-DSS model represents inflammation (colitis)-promoted colon cancer. In FIG. 5A, the experimental design is shown. At day 0, AOM is administered to the Balb/c mice.

COX-2 [11] = biological target: T2, COX-2; test: COX-2 inhibition with purified human enzyme (Table 3); format: biochemical; parameters: A549 cells were pre-treated with 0.5-1 ng/mL of IL-1β- for 6 hours to induce COX-2 expression; endogenous in cells; conditions: mean±SEM
Excerpt: Free radical biology & medicine 95, 190-199. Results are mean±SEM based on four or more independent experiments.

COX-2 [12] = biological target: T2, COX-2; parameters: A549 cells were pre-treated with 0.5-1 ng/mL of IL-1β- for 6 hours to induce COX-2 expression; endogenous in cells; conditions: previously reported; read-out: IC50 COX-2 in A549 cells; cited from earlier work
[13] = test system: sulfation of carboxychromanols; test: Sulfation of carboxychromanols; conditions: preliminary data
[14] = at maximum concentration of 20 μM
[15] = purified enzyme, Not inhibit: 9′ at 20 μM, acetaminophen at 250 μM
[16] = intact cells, COX-2 pre-induced by IL-1β, 5 μM AA, read-out: IC50 COX-2 in A549 cells
[17] = Table 2, read-out: IC50 COX-2 activity in intact cells
[18] = purified enzyme, Not inhibit: 9′ at 20 μM, acetaminophen at 250 μM, listed as F-CEHC

Structure (SMILES): Cc1cc(O)cc2c1OC(C)(CCCC(C)CCCC(C)C(=O)O)CC2 (centres unmarked) [9′]
- estimated IC50 of 5-LOX activity (5-LOX): low microM
- detection in the plasma and liver [1]: not
- inhibition of COX-2 (COX-2 [2]; [14]): did not inhibit
- IC50 COX-2 (COX-2 [2]; [15]): Not inhibit*
- IC50 (COX-2 [3]; [16]): 7 ± 2 µM
- inhibition of COX-1 (ovine COX-1; [14]): did not inhibit
- IC50 COX-1 (ovine COX-1; [15]): Not inhibit*

Structure (SMILES): COc1cc(/C=C/C(=O)CC(=O)/C=C/c2ccc(O)c(OC)c2)ccc1O [curcumin, reference compound]
- cytotoxicity at 6 µM ([8]; Homo sapiens, HCT-116, curcumin 6 μM, δTE-13′-COOH 10 μM or their combination, 72 h, read-out: reduction of colon cancer cell viability): 35%
- sulfation of carboxychromanols [13]: inhibits sulfation

More lines, main results first:

- IC50 (COX-2 [2]; [15]): 4 ± 2 µM
- amount found in feces [4]: > 100 nmol/g
- IC50 (COX-2 [3]; [17]): 4 ± 2 µM
- IC50 (COX-2 [3]; [16]): 6 ± 2 µM
- IC50 (ovine COX-1; [15]): 5 ± 2 µM
Structure (SMILES): Cc1cc(O)cc2c1OC(C)(CCCC(C)CCCC(C)CCCC(C)C(=O)O)CC2 (centres unmarked) [13′, 13-(6-hydroxy-2,8-dimethylchroman-2-yl)-2,6,10-trimethyltridecanoic acid]
- detection in the plasma and liver [1]: significant amounts
- PGE2 [5]: 3.21 ± 0.9 ng/mL
- sensitivity of normal cells (anti-proliferation, 24-h incubation) [6]: much less sensitive

- IC50 (COX-2 [3]; [17]): 4 ± 1 µM
- food intake [10]: no effect
- IC50 (COX-2 [11]): 9.8 ± 2 µM
Structure (SMILES): C/C(=C\CC/C(C)=C/CCC1(C)CCc2cc(O)cc(C)c2O1)CC/C=C(\C)C(=O)O (centres unmarked) [δTE-13′, (2E,6E,10E)-13-(6-hydroxy-2,8-dimethylchroman-2-yl)-2,6,10-trimethyltrideca-2,6,10-trienoic acid]
- cells in early stage apoptosis [7]: 7.92%
- cells in late stage apoptosis [7]: 22.9%
- cancer cell growth (MTT) ([8]; 5, 10, 20 μM, over 60 hours): dose-dependently inhibits
- reduction of colon cancer cell viability ([8]; curcumin 6 μM, δTE-13′-COOH 10 μM or their combination, 72 h): 11-12%
- colitis score (DSS-induced colitis; compared to the DSS-treated control): significantly decreased colitis score
- DSS-induced diarrhea and fecal bleeding (DSS-induced colitis; in diet): significantly mitigated
- cancer cell growth (MTT) [9]: dose-dependently inhibits
- cancer cell growth (MTT) (HT29 colon cancer cells): dose- and time-dependent manner
- body weight [10]: no effect
- decrease of total tumor multiplicity ([10]; P<0.01): 34%
- decrease of large polyps ([10]; P<0.05): 58%
- DSS-induced inflammation (fecal bleeding) ([10]; second cycle of DSS): significantly attenuated

- IC50 in the enzyme assay (COX-2 [2]; assays using purified COX-1 or COX-2): > 3000/1
- IC50 (COX-2 [2]; [15]): 450 ± 50 µM
- IC50 (COX-2 [2]; [18]): 300 to 500 µM
- IC50 (ovine COX-1; [15]): 300 ± 50 µM
- IC50 (ovine COX-1; [18]): 300 to 500 µM
Structure (SMILES): Cc1c(O)cc2c(c1C)OC(C)(CCC(=O)O)CC2 (centres unmarked) [γ-CEHC, reference compound]
- IC50 (COX-2 [12]): 30 to 70 µM
